Non-standard residues stand in square brackets, D forms with d. Primed or numbered codes have the meaning given here. No end group written: not given here. Ida(3) = iminodiacetic acid linker, Lys side-chain amines bound to its two carboxyl groups; Ida(4) = iminodiacetic acid linker (dimerization linker bound to lysine side chain); Ida″ = iminodiacetic acid linker bound to the Lys side-chain amine, forming a dimer; Ahx = NCCCCCC(=O)O
system: HUVECs; type: cell-based; settings: 48 h
Procedure, shortened: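 Proliferation read-out: BrdU incorporation after 48-hour culture (37 ° C, 5% CO2) with graded peptide doses. Cells were in EBM with 2% FCS at 5,000 per well, driven by VEGF (5 ng/ml) or bFGF (10 ng/ml), added after ≥12-hour attachment.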

Compound | IC50 [µM]
CC[C@H](C)[C@H](NC(=O)[C@H](C)NC(=O)[C@@H](NC(=O)[C@H](C)NC(=O)[C@H](CCC(N)=O)NC(=O)[C@H](CCCNC(=N)N)NC(=O)[C@H](CCCNC(=N)N)NC(=O)[C@H](CCCNC(=N)N)NC(=O)[C@H](C)NC(=O)[C@H](CCCNC(=N)N)NC(C)=O)C(C)C)C(=O)N[C@@H](CC(N)=O)C(=O)N[C@@H](Cc1ccccc1)C(=O)N[C@@H](CCCCNC(=O)CN(CC(=O)NCCCC[C@H](NC(=O)[C@H](Cc1ccccc1)NC(=O)[C@H](CC(N)=O)NC(=O)[C@@H](NC(=O)[C@H](C)NC(=O)[C@@H](NC(=O)[C@H](C)NC(=O)[C@H](CCC(N)=O)NC(=O)[C@H](CCCNC(=N)N)NC(=O)[C@H](CCCNC(=N)N)NC(=O)[C@H](CCCNC(=N)N)NC(=O)[C@H](C)NC(=O)[C@H](CCCNC(=N)N)NC(C)=O)C(C)C)[C@@H](C)CC)C(N)=O)C(=O)CCNC(=O)OC(C)(C)C)C(N)=O [Peptide 272] | < 10

same assay, conditions: HUVEC proliferation, bFGF at 10 ng/ml or VEGF at 5 ng/ml, 48 hours, BrdU incorporation; read-out: IC50 on HUVECs

Compound | IC50 [µM]
475 (Ac-PRRRNQAVAIYFK(Ida(3)); not fully specified (C-terminus); also: homodimer via Ida linker on Lys13 side chain) [compound 475] | < 10
KTKRKRIKQRVKRAYEEIF [compound 137] | > 30
500 (Ac-PRRNRQAVAIYFK(Ida″); not fully specified (C-terminus); also: homodimer via Ida linker on Lys13 side chain) [compound 500] | < 10
KTKRKRKAARVKIAYEEIFVQNM [compound 53] | > 30
171 (Ac-RRRRRQRVRIIFK; also: homodimer via GP3-PEG 20 kDa linker on Lys13 side chains) [compound 171] | < 10
KTKRARKKQRVKIIFVQNM [compound 119] | < 10
195 (Ac-ARRRRQAVRIIF; also: dimer: C-terminal Phe bound to an amino group of a Lys linker, 2 chains per Lys) [compound 195] | < 10
440 (Ac-RRRRSQAVAIYFK(Ida(4)); not fully specified (C-terminus); also: homodimer via Ida linker at K13) [compound 440] | < 10
KTKRKRKKQRVKIIFAQNM [compound 108] | 10 to 30
236 (Ac-RHRHRQRVRIIF; also: dimer via C-terminal Phe to Lys linker) [compound 236] | < 10
KTKRKRKKQRVKEIFVQNM [compound 32] | > 30
239 (Ac-RHRRRQRVHIIF; also: dimer via C-terminal Phe to Lys linker) [compound 239] | < 10
412 (Ac-VRRRRQAVAIYFK; not fully specified (residue 13, C-terminus); also: homodimer via Ida linker on Lys side chains, linker at 13 via Ida, other end not in the chain) [compound 412] | < 10
201 (Ac-RARRRQRVAIIF; also: dimer: C-terminal Phe bound to an amino group of a Lys linker, 2 chains per Lys) [compound 201] | < 10
191 (Ac-AARRRQRVRIIF; also: dimer: C-terminal Phe bound to an amino group of a Lys linker, 2 chains per Lys) [compound 191] | < 10
370 (Ac-ARRRRQRVAFYFK-NH2; not fully specified (residue 13); also: homodimer via Ida linker on Lys13 side chain, Boc on Ida amine) [compound 370] | < 10
512 (Ac-ARRRRGRVAIYFK; not fully specified (C-terminus); also: homodimer via Ida linker at Lys13 side chain) [compound 512] | < 10
169 (Ac-KRRRRRQRVRIIF; also: homodimer via Ida linker on Lys1 side chains) [compound 169] | < 10
252 (Ac-ARRRRQRVAIIF[dK]; not fully specified (C-terminus); also: homodimer: side chain of Lys13 bound to an Ida linker) [compound 252] | < 10
229 (XHRRRQRVRIIF; Xaa = Acylated Histidine; Dimeric peptide wherein the C terminus of Phe in position 12 of one peptide chain is covalently bound to one of the amino groups of a Lysine linker and Phe of the remaining peptide chain is covalently bound to the other amino group of the Lysine linker.) [compound 229] | < 10
418 (Ac-ARRRRQPVAIYFK; not fully specified (residue 13, C-terminus); also: homodimer of residues 1-13 via Ida linker on K13 side chain) [compound 418] | < 10
426 (Ac-ARRRRQYVAIYFK; not fully specified (residue 13, C-terminus); also: homodimer of residues 1-13 via Ida linker on Lys13 side chain) [compound 426] | < 10
KTKRKRKKQRVKIAYEEIFAANM [compound 46] | 10 to 30

Compound | IC50 [µM]
216 (Ac-ARRRRQAVAIIF; also: dimer: Phe C-termini joined via Lys linker) [compound 216] | 10 to 30
59 ([Ahx]RTRRRRRRQRVRIAYEEIFVRNM; also: homodimer of residues 1-24 via Ida linker on Ahx amino group) [compound 59] | > 30
322 (XRRRRQHVHIYFK; Xaa = Acylated Histidine; The side chain of Lysine at position 13 is covalently bound to an Ida linker forming a homodimer of residues 1 through 13.) [compound 322] | < 10
502 (Ac-PRRHRQAVAIYFK; not fully specified (residue 13, C-terminus); also: homodimer via Ida linker on Lys13 side chain) [compound 502] | 10 to 30
369 (Ac-ARRRRQRVAQYFK-NH2; not fully specified (residue 13); also: homodimer via Ida linker on Lys13 side chain, Boc on Ida amine) [compound 369] | > 30
338 (Ac-RHRRRQHVHIYFK(Ida(3))-NH2; also: homodimer via Lys13 side chain, Ida linker (Ida amino group Boc)) [compound 338] | < 10
1 ([Ahx]RTRRRRRRQRVRIAYEEIFVRNM) [compound 1] | < 10
217 (Ac-AHHHHQHVAIIF; also: dimer: Phe C-termini joined via Lys linker) [compound 217] | > 30
352 (Ac-ARRRRQRVAIYIK-NH2; not fully specified (residue 13); also: homodimer of residues 1-13 via Ida linker on K13 side chain) [compound 352] | < 10
431 (Ac-ARRRRQAVAIYK(Ida(4))F; also: homodimer via Ida linker at K12) [compound 431] | < 10
339 (Ac-RRHHRQHVRIYFK(Ida(3))-NH2; also: homodimer via Lys13 side chain, Ida linker (Ida amino group Boc)) [compound 339] | < 10
417 (Ac-RRRRRQAVAIKFV; not fully specified (residue 11); also: homodimer via Ida linker on Lys side chains, linker at 11 via Ida, other end not in the chain) [compound 417] | < 10
387 (Ac-ARRRRQAVEIYFK-NH2; not fully specified (residue 13); also: homodimer via Ida linker on Lys13 side chain, Ida amine Boc) [compound 387] | < 10
371 (Ac-ARRRRQRVAYYFK-NH2; not fully specified (residue 13); also: homodimer via Ida linker on Lys13 side chain, Boc on Ida amine) [compound 371] | < 10
KTKRKRKKQRVKIAYEEIFVQN [compound 25] | < 10
KTKRKRKKQAVKIIFVQNM [compound 114] | > 30
395 (Ac-ARRRRQAVTIYFK; not fully specified (residue 13, C-terminus); also: homodimer of residues 1-13 via Ida linker at Lys13 side chain) [compound 395] | < 10
244 (Ac-RRRHRQHVRIIF; also: homodimer: C-termini of two chains bound to the two amines of a Lys linker) [compound 244] | < 10
KTKRKRKKQRVKIIF [compound 79] | > 30
450 (Ac-ARRRRQAVAILFK-NH2; not fully specified (residue 13); also: homodimer via Ida linker at K13) [compound 450] | < 10
355 (Ac-ARRRR[dQ]RVAIIFK; not fully specified) [compound 355] | > 30
479 (Ac-PRRRVQAVAIYFK(Ida(3)); not fully specified (C-terminus); also: homodimer via Ida linker on Lys13 side chain) [compound 479] | 10 to 30
501 (Ac-PRRERQAVAIYFK; not fully specified (residue 13, C-terminus); also: homodimer via Ida linker on Lys13 side chain) [compound 501] | < 10
